US7396837B2, “Antitumoral analogs of lamellarins” (Pharma Mar, S.A.U., priority 2002, dated 2008)
Like-named read-outs stand apart in the source and are kept apart here.

What was measured:
Type in all cases: cell-based
DU-145 = experiment: SRB colorimetric cell growth inhibition assay, DU-145; conditions: Homo sapiens
Method in brief: (§1)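 Read-out: sulforhodamine B colorimetry of surviving cell mass after continued exposure of human tumour lines to sample. Values are means ± SD of three wells, expressed as GI, TGI or LC.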

K-562 = experiment: SRB colorimetric cell growth inhibition assay, K-562; conditions: Homo sapiens
Method in brief: as §1

LoVo-Dox = experiment: SRB colorimetric cell growth inhibition assay, LoVo-Dox (MDR); conditions: Homo sapiens; for GI50: read-out: GI50 LOVO-DOX; for CC50: read-out: LC50 LOVO-DOX; for IC (TGI): read-out: TGI LOVO-DOX
Method in brief: as §1

LNCaP = experiment: SRB colorimetric cell growth inhibition assay, LNCaP; conditions: Homo sapiens, LNCaP; for GI50: read-out: GI50 LN-caP; for CC50: read-out: LC50 LN-caP; for IC (TGI): read-out: TGI LN-caP
Method in brief: as §1

PANC-1 = experiment: SRB colorimetric cell growth inhibition assay, PANC-1; conditions: Homo sapiens
Method in brief: as §1

SKOV-3 = experiment: SRB colorimetric cell growth inhibition assay, SKOV-3; conditions: Homo sapiens
Source text: (§2) A colorimetric type of assay, using sulforhodamine B (SRB) reaction has been adapted for a quantitative measurement of cell growth and viability (following the technique described by P. A. Skehan, et al., J. Natl. Cancer Inst. 1990, 82, 1107-1112).
(§3) This form of assay employs 96 well cell culture microplates of 9 mm diameter (T. Mosmann et al., J. of Immunological Methods 1983, 65, 55-63; G. T. Faircloth et al., J. of Tissue and Culture Methods 1988, 11, 201-205).
(§4) Most of the cell lines are obtained from American Type Culture Collection (ATCC) derived from different human cancer types.
(§5) The values for mean +/− SD of data from triplicate wells are calculated. Some parameters for cellular responses can be calculated: GI=growth inhibition, TGI=total growth inhibition (cytostatic effect) and LC=cell killing (cytotoxic effect).

[1] = SRB colorimetric cell growth inhibition assay, H-MEC-1; conditions: human, H-MEC-1, cell killing (cytotoxic effect), read-out: LC50 H-MEC-1
Source text: as §2, §3, §4, §5

H-MEC-1 = experiment: as above; conditions: Homo sapiens
Source text: as §2, §3, §4, §5

LoVo = experiment: SRB colorimetric cell growth inhibition assay, LoVo; conditions: Homo sapiens, LoVo; for GI50: read-out: GI50 LOVO; for CC50: read-out: LC50 LOVO; for IC (TGI): read-out: TGI LOVO
Method in brief: as §1

SK-BR-3 = experiment: SRB colorimetric cell growth inhibition assay, SK-BR-3; conditions: Homo sapiens
Method in brief: as §1

IGROV-ET = experiment: SRB colorimetric cell growth inhibition assay, IGROV-ET (ET-743 resistant); conditions: Homo sapiens; for GI50: read-out: GI50 IGROV-ET; for CC50: read-out: LC50 IGROV-ET; for IC (TGI): read-out: TGI IGROV-ET
Method in brief: as §1

HT-29 = experiment: SRB colorimetric cell growth inhibition assay, HT-29; conditions: Homo sapiens
Method in brief: as §1

A-549 = experiment: SRB colorimetric cell growth inhibition assay, A-549; conditions: Homo sapiens
Method in brief: as §1

IGROV = experiment: SRB colorimetric cell growth inhibition assay, IGROV; conditions: Homo sapiens, IGROV; for GI50: read-out: GI50 IGROV; for CC50: read-out: LC50 IGROV; for IC (TGI): read-out: TGI IGROV
Method in brief: as §1

SK-MEL-28 = experiment: SRB colorimetric cell growth inhibition assay, SK-MEL-28; conditions: Homo sapiens
Method in brief: as §1

[2] = cell killing (cytotoxic effect)
[3] = total growth inhibition (cytostatic effect)

COc1cc(-c2c3n(c4c(=O)oc5cc(O)c(OC)cc5c24)CCc2c-3cc(OC)c(OC)c2O)ccc1O [Compound 1]
GI50 (DU-145; DU-145, DU-145, GI=growth inhibition, read-out: GI50 DU-145): 8.24 µM | CC50 (DU-145; DU-145, DU-145, cell killing (cytotoxic effect), read-out: LC50 DU-145): 17 µM | IC (TGI) (DU-145; DU-145, DU-145, total growth inhibition (cytostatic effect), read-out: TGI DU-145): 11.8 µM | GI50 (K-562; K562, K-562, GI=growth inhibition, read-out: GI50 K-562): 0.815 µM | CC50 (K-562; K562, K-562, cell killing (cytotoxic effect), read-out: LC50 K-562): 2.97 µM | IC (TGI) (K-562; K562, K-562, total growth inhibition (cytostatic effect), read-out: TGI K-562): 2.11 µM | GI50 (LoVo-Dox; LOVO-DOX, GI=growth inhibition): 0.801 µM | CC50 (LoVo-Dox; LOVO-DOX, cell killing (cytotoxic effect)): 18.8 µM | IC (TGI) (LoVo-Dox; LOVO-DOX, total growth inhibition (cytostatic effect)): 7.13 µM | GI50 (LNCaP; LN-caP, GI=growth inhibition): 0.277 µM | CC50 (LNCaP; LN-caP, cell killing (cytotoxic effect)): 7.85 µM | IC (TGI) (LNCaP; LN-caP, total growth inhibition (cytostatic effect)): 1.44 µM | GI50 (PANC-1; PANC-1, PANC-1, GI=growth inhibition, read-out: GI50 PANC-1): 2.2 µM | CC50 (PANC-1; PANC-1, PANC-1, cell killing (cytotoxic effect), read-out: LC50 PANC-1): 18.8 µM | IC (TGI) (PANC-1; PANC-1, PANC-1, total growth inhibition (cytostatic effect), read-out: TGI PANC-1): 7.94 µM | GI50 (SKOV-3; SK-OV-3, SKOV-3, GI=growth inhibition, read-out: GI50 SKOV-3): 13.7 µM | LC50 (concentration causing 50% net cell killing) (SKOV-3; SK-OV-3, SKOV-3, cell killing (cytotoxic effect), read-out: LC50 SKOV-3): 18.8 µM | IC (TGI) (SKOV-3; SK-OV-3, SKOV-3, total growth inhibition (cytostatic effect), read-out: TGI SKOV-3): 18.8 µM | LC50 (concentration giving 50% net cell killing) ([1]; H-MEC-1 cells): 5.72 µM | GI50 (H-MEC-1; HMEC-1, H-MEC-1, GI=growth inhibition, read-out: GI50 H-MEC-1): 0.606 µM | IC (TGI) (H-MEC-1; HMEC-1, H-MEC-1, total growth inhibition (cytostatic effect), read-out: TGI H-MEC-1): 1.38 µM | GI50 (LoVo; GI=growth inhibition): 11.8 µM | CC50 (LoVo; [2]): 18.8 µM | IC (TGI) (LoVo; [3]): 57.6 µM | GI50 (SK-BR-3; SK-BR-3, SK-BR-3, GI=growth inhibition, read-out: GI50 SK-BR-3): 2.37 µM | CC50 (SK-BR-3; SK-BR-3, SK-BR-3, cell killing (cytotoxic effect), read-out: LC50 SK-BR-3): 18.8 µM | IC (TGI) (SK-BR-3; SK-BR-3, SK-BR-3, total growth inhibition (cytostatic effect), read-out: TGI SK-BR-3): 10.9 µM | GI50 (IGROV-ET; IGROV-ET, GI=growth inhibition): 0.444 µM | CC50 (IGROV-ET; IGROV-ET, cell killing (cytotoxic effect)): 18.8 µM | IC (TGI) (IGROV-ET; IGROV-ET, total growth inhibition (cytostatic effect)): 1.2 µM | GI50 (HT-29; HT-29, HT-29, GI=growth inhibition, read-out: GI50 HT-29): ≥ 18.8 µM | CC50 (HT-29; HT-29, HT-29, cell killing (cytotoxic effect), read-out: LC50 HT-29): 18.8 µM | IC (TGI) (HT-29; HT-29, HT-29, total growth inhibition (cytostatic effect), read-out: TGI HT-29): 18.8 µM | GI50 (A-549; A549, A-549, GI=growth inhibition, read-out: GI50 A-549): ≥ 1.88 µM | CC50 (A-549; A549, A-549, cell killing (cytotoxic effect), read-out: LC50 A-549): ≥ 1.88 µM | IC (TGI) (A-549; A549, A-549, total growth inhibition (cytostatic effect), read-out: TGI A-549): 1.88 µM | GI50 (IGROV; GI=growth inhibition): 0.493 µM | CC50 (IGROV; [2]): 18.8 µM | IC (TGI) (IGROV; [3]): 1.76 µM | GI50 (SK-MEL-28; SK-MEL-28, MEL-28, GI=growth inhibition, read-out: GI50 MEL-28): 2.24 µM | CC50 (SK-MEL-28; SK-MEL-28, MEL-28, cell killing (cytotoxic effect), read-out: LC50 MEL-28): 11.3 µM | IC (TGI) (SK-MEL-28; SK-MEL-28, MEL-28, total growth inhibition (cytostatic effect), read-out: TGI MEL-28): 5.04 µM

COc1cc(-c2c3c4cc(OC)c(O)cc4oc(=O)c3n3ccc4c(O)c(OC)c(OC)cc4c23)ccc1O [Compound 2]
GI50 (DU-145; DU-145, read-out: GI50 DU-145): 0.064 µM | CC50 (DU-145; DU-145, read-out: LC50 DU-145): ≥ 18.9 µM | IC (TGI) (DU-145; DU-145, read-out: TGI DU-145): 0.14 µM | GI50 (K-562; K562, read-out: GI50 K-562): 0.117 µM | CC50 (K-562; K562, read-out: LC50 K-562): 18.9 µM | IC (TGI) (K-562; K562, read-out: TGI K-562): 2.25 µM | GI50 (LoVo-Dox): 0.604 µM | CC50 (LoVo-Dox): 18.9 µM | IC (TGI) (LoVo-Dox): 3.83 µM | GI50 (LNCaP): 0.0727 µM | CC50 (LNCaP): 1.44 µM | IC (TGI) (LNCaP): 0.398 µM | GI50 (PANC-1; PANC-1, read-out: GI50 PANC-1): 0.988 µM | CC50 (PANC-1; PANC-1, read-out: LC50 PANC-1): 18.9 µM | IC (TGI) (PANC-1; PANC-1, read-out: TGI PANC-1): 6.97 µM | GI50 (SKOV-3; SK-OV-3, read-out: GI50 SKOV-3): 0.14 µM | LC50 (concentration causing 50% net cell killing) (SKOV-3; SK-OV-3, read-out: LC50 SKOV-3): ≥ 18.9 µM | IC (TGI) (SKOV-3; SK-OV-3, read-out: TGI SKOV-3): 5.1 µM | LC50 (concentration giving 50% net cell killing) [1]: ≥ 18.9 µM | GI50 (H-MEC-1; HMEC-1, read-out: GI50 H-MEC-1): 0.665 µM | IC (TGI) (H-MEC-1; HMEC-1, read-out: TGI H-MEC-1): 18.9 µM | GI50 (LoVo): 0.398 µM | CC50 (LoVo): 16 µM | IC (TGI) (LoVo): 3.02 µM | GI50 (SK-BR-3; SK-BR-3, read-out: GI50 SK-BR-3): 0.314 µM | CC50 (SK-BR-3; SK-BR-3, read-out: LC50 SK-BR-3): ≥ 18.8 µM | IC (TGI) (SK-BR-3; SK-BR-3, read-out: TGI SK-BR-3): 2.36 µM | GI50 (IGROV-ET): 1.98 µM | CC50 (IGROV-ET): ≥ 18.9 µM | IC (TGI) (IGROV-ET): 8.12 µM | GI50 (HT-29; HT-29, read-out: GI50 HT-29): 8.31 µM | CC50 (HT-29; HT-29, read-out: LC50 HT-29): 18.9 µM | IC (TGI) (HT-29; HT-29, read-out: TGI HT-29): 18.9 µM | GI50 (A-549; A549, read-out: GI50 A-549): 0.674 µM | CC50 (A-549; A549, read-out: LC50 A-549): 18.9 µM | IC (TGI) (A-549; A549, read-out: TGI A-549): 18.9 µM | GI50 (IGROV): 0.88 µM | CC50 (IGROV): ≥ 18.9 µM | IC (TGI) (IGROV): 5.17 µM | GI50 (SK-MEL-28; SK-MEL-28, read-out: GI50 MEL-28): 0.302 µM | CC50 (SK-MEL-28; SK-MEL-28, read-out: LC50 MEL-28): ≥ 18.9 µM | IC (TGI) (SK-MEL-28; SK-MEL-28, read-out: TGI MEL-28): 3.66 µM

COc1cc(-c2c3n(c4c(=O)oc5cc(OC(=O)[C@@H](N)C[S][Fm])c(OC)cc5c24)CCc2c-3cc(OC)c(OC)c2OC(=O)[C@@H](N)C[S][Fm])ccc1OC(=O)[C@@H](N)C[S][Fm] [Compound 23]
LC50 (concentration giving 50% net cell killing) [1]: 2.87 µM
